Data: US20070166710A1, “Methods for inhibiting adipogenesis and for treating type 2 diabetes” (priority 2003, published 2007)

Key:
Foxa-2 activity = assay: Transactivation assay, HepG2 cells transfected with Foxa-2 and pPepck-Luc or p6xCdx-TkLuc; format: cell-based, rat; settings: insulin 100 nM for the duration of transfection
Procedure: Transfections and Transactivation assay. HepG2 cells were grown to 60-70% confluence in a 24-well dish and transfected with 50 ng of each reporter gene (p6xCdx-TkLuc or pPEPCK-Luc), pCMV-β-Gal as internal reference and the expression vectors for wildtype or mutant Foxa-1 and Foxa-2 and human Akt1/Akt2 using the transfection reagent Fugene6 (Roche). Cells were grown for 48 hours and luciferase activity was measured using the Luciferase Detection System (Promega). Luciferase was normalized for transfection efficiency by β-galactosidase activity.
To analyze whether Foxa-2 activity is regulated by insulin, HepG2 cells were transfected with a Foxa-2 expression vector and either plasmid pPepck-Luc or p6xCdx-TkLuc that contain a 621 bp promoter framnent of the human PEPCK gene or six Foxa-2 binding sites of the Cdx-2 gene upstream of a minimal promoter and the luciferase gene, respectively.

Foxa-2 expression = Foxa-2 expression in primary adipocytes from ob/ob mice, semiquantitative RT-PCR; format: cell-based; settings: insulin 100 μM as printed, prolonged culturing (24 and 60 hours)
Procedure: Total RNA was extracted from cells and EBs using Trizol following manufacturer's instructions (Life Technologies, Inc.). […] The cDNAs provided templates for polymerase chain reactions (PCRs) using specific primers at annealing temperatures ranging between 60 and 65° C. in the presence of dNTPs, [α^-32P]dCTP, and Taq DNA polymerase. […] Primary adipocytes were isolated as described by Rodbell (1964) J. Biol. Chem. 239:375-380. […] (1995) J. Cell. Biochem. 58:435-463. The reaction was stopped by spinning through dinonyl […] oil and the radioactivity quantified by scintillation counting. […] (1995) Am. J. Physiol. 268:[…]-[…]. Fatty acid de novo synthesis was analyzed by saponification of total lipids as described by […] et al. (1978) J. […] Incorporation into lipid glycerol was calculated by subtracting fatty acid radioactive label from total lipid radioactive label. Primary adipocytes were isolated from ob/ob mice and cultured in MEM medium (control) or in the presence of insulin (100 μM; 24 hours and 60 hours, respectively) or rosiglitazone (50 μM), WY14,643 (100 μM), dexamethason (1 μM), leptin (100 ng/ml), TNF-α, (5 ng/ml), adiponectin (500 ng/ml) and glucagons (100 nM) for 60 hours. Gene expression was measured by semiquantitative RT-PCR. Steady state mRNA levels of Hprt were used as a control and indicate that each lane contains similar amounts of rnRNA. Reactions were also assayed in the absence of reverse transcriptase, showing that mRNA was not contaminated with genomic DNA.

Pepck, G6pc and Igfbp-1 = assay: mRNA levels of Foxa-2 target genes in primary hepatocytes (RT-PCR); format: cell-based; settings: insulin alone (50 nM, 6 hours)
Procedure: FIGS. 10a-d depict the effect of insulin on Foxa-2 activity. FIG. 10a is a bar graph depicting relative Foxa-2 activity in HepG2 cells transfected with an expression vector for Foxa-2 and […]-Luc (gray bars) or p6xCdx-TkLuc (black bars). Cells were treated with insulin alone or in the presence of Ly294002 or PD98059. FIG. 10b is a bar graph depicting relative Foxa-2 activity in HepG2 cells transfected with p6xCdx-TkLuc and treated with insulin alone or in the presence of Ly294002 or PD98059. […] FIG. 10d is a bar graph depicting relative Foxa-2 activity in HepG2 cells transfected with an expression vector for Foxa-1, Foxa-2, Akt or Akt[…] alone or in combination, using p6xCdx-TkLuc as reporter gene. In all experiments luciferase activity was normalized to β-Gal activity. […] Levels of mRNA were analyzed to determine whether inhibition of Foxa-2 target gene expression by insulin is controlled at a transcriptional or posttranscriptional level. The mRNA levels of Pepck, G6pc and Igfbp-1 in primary hepatocytes that were cultured either in the presence or absence of insulin, PI3-kinase or MAPKK1 inhibitors were measured.

Foxa-2 = assay: Immunofluorescence of subcellular distribution of endogenous Foxa-2 in HepG2 cells; format: cell-based; settings: insulin 50 nM
Procedure: Immunofluorescence microscopy. Cells were fixed for 30 minutes at room temperature with 2% paraformaldehyde. For immunofluorescent detection of Foxa-1 or Foxa-2, fixed cells were incubated with respective polyclonal antibodies (1:100) (Ruiz i Altaba et al. (1993) Mech. Dev. 44: 91-108) overnight at 4° C. After washing, the cells were treated with anti rabbit IgG secondary antibody linked to Alexa Fluor 488 (Molecular Probes). Immunofluorescent staining was visualized using laser-scanning micrsocopy. To determine whether Akt-induced phosporylation of Foxa-2 has an effect on the subcellular distribution of this transcription factor, the following experiment was performed. HepG2 cells were grown to 60% confluency and endogenous Foxa-1 and Foxa-2 proteins were visualized by immunofluorescence after staining with anti Foxa-1 and Foxa-2 antibodies. Cells were either examined in the absence or presence of insulin (50 nM) and/or Ly294002 or PD98059, and after transfection with either Akt1 or Akt2 expression vectors (FIG. 5B). […] Treatment of cells with MAPKK1 inhibitor PD98059 had no effect on insulin stimulated nuclear exclusion of Foxa-2. The subcellular distribution of Foxa-2 in cells that were stimulated with insulin and expressed a dominant negative form of Akt (Akt[…]) were resistant to nuclear exclusion. […]

[1] = system: Pref-1, Hk-2, m2Pk, Glut-4 and Ucp-2/3; assay: Expression of putative Foxa-2 target genes in primary adipocytes cultured with insulin; format: cell-based, mice; settings: 100 nM insulin for 60 hours vs untreated adipocytes

In the case of “insulin: Insulin was from Sigma; hormone used as stimulus”, the “Foxa-2 activity (luciferase reporter)” value (Foxa-2 activity) is reported as “significantly decreased”, the Foxa-2 expression (Foxa-2 expression) is reported as “strong increase” and the “mRNA levels of Pepck, G6pc and Igfbp-1” value (Pepck, G6pc and Igfbp-1) is reported as “significantly reduced”. For the same substance, the “subcellular localization of endogenous Foxa-2” value (Foxa-2) was “efficiently excluded from the nucleus” and the “expression of Pref-1, Hk-2, m2Pk, Glut-4 and Ucp-2/3” value [1] was “upregulation”.
